Assay results: patent US20130165368A1, “ANTIMICROBIAL COMPOUNDS” (priority 2010, published 2013)
Converted amounts (≈) assume the structure as drawn. Where two headings read alike, the source gives them in different places.

Assays:
Type in all cases: cell-based
[1] = system: Bacillus subtilis; experiment: MIC agar dilution, micro-organism 18 (9372); settings: Bacillus subtilis 9372
How it was run: (§1)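 Twofold dilutions of compound emulsions in water were set in Isosensitest agar with Brazier's CCEY medium, egg yolk and lysed horse blood. Spots of 1 µL from 0.5 McFarland suspensions diluted 1/15 were incubated aerobically at 37 °C and read at 22 and 48 h. MIC (mmol/L) was the lowest concentration giving <10 colonies.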

[2] = system: Enterococcus faecalis; experiment: MIC agar dilution, micro-organism 17 (775); settings: Enterococcus faecalis 775
How it was run: as §1

[3] = system: Providencia rettgeri; experiment: MIC agar dilution, micro-organism 3 (7475); settings: Providencia rettgeri 7475
How it was run: as §1

[4] = system: Listeria monocytogenes; experiment: MIC agar dilution, micro-organism 15 (11994); settings: Listeria monocytogenes 11994
How it was run: as §1

[5] = system: Candida albicans; experiment: MIC agar dilution, micro-organism 19 (90028); settings: Candida albicans 90028
How it was run: as §1

[6] = system: Steptococcus pyogenes; experiment: MIC agar dilution, micro-organism 11 (8306); settings: Steptococcus pyogenes 8306
How it was run: as §1

[7] = system: MRSA EMRSA 16 00036/95; experiment: MIC agar dilution, MRSA strain 46; settings: Staphylococcus aureus
Description: (§2) Molar equivalent concentrations were used to allow comparison between compounds of differing molecular mass. Due to weighing difficulties, any compound in solid form was melted in a water bath prior to dilution. To make ten-times strength concentrations, which takes into account agar dilution, 0.0352 mmol of each compound was weighed into plastic universal bottles and 4 mL of sterile distilled water (SDW) was added. To produce a homogenous emulsion the universals were vortexed; once achieved the emulsions were serial diluted by adding 2 mL to 2 mL of SDW.
(§3) For every 100 mL of Isosensitest agar (IST) (CM0471; Oxoid, Basingstoke, England), 3.1 g of the IST powder was added to 100 mL SDW (as per manufacturer's instructions) and sterilised for 15 minutes at 121° C. Once sterilised, the molten agar was cooled to 50° C. in a water-bath. Subsequently 4.8 g of CCEY powder (BC2160; Bioconnections, Wetherby, England), also known as Brazier's medium, was added to 100 mL SDW for every 100 mL of agar needed. This was then sterilised for 15 minutes at 121° C. Once sterilised the molten agar was cooled to 50° C. in a water-bath and 4 mL of egg-yolk emulsion (S2073; TCS Biosciences Ltd, Buckingham, United Kingdom) and 1 mL of lysed defibrinated horse blood (HB035; TCS Biosciences Ltd, Buckingham, United Kingdom) were also added for every 100 mL needed. Horse blood lysis is achieved by dilution to half concentration with SDW; when fully lysed the mixture will turn dark red in colour.
(§4) 18 mL agar was added to each universal and then poured into sterile Petri dishes. This step creates a 1/10 dilution resulting in agar plates of the required strength. Control plates for each set of strains were created by adding 18 mL of agar to 2 mL of SDW.
(§5) Suspensions of each bacterial species were prepared with a density equal to that of a 0.5 McFarland standard using a densitometer. All suspensions were made using sterile distilled water and fresh 18-20 hour cultures. As a 0.5 McFarland standard contains 1.5×10^8 CFU/mL and the multipoint inoculators applies 1 μL spots of liquid, each bacterial suspension was diluted 1/15 (20 μL suspension to 280 μL sterile distilled water).
(§6) Bacterial suspensions were prepared from fresh 18-24 hour cultures as previously described. 1 μL of each strain was inoculated onto all 100 agar plates containing a different chemical concentration and the 2 control plates. This was done using a multipoint inoculator which inoculates 20 strains per plate. All plates were incubated for 22 hours at 37° C. in aerobic conditions.
(§7) Each plate was examined for bacterial growth after 22 and 48 hours, with each being incubated in between examinations. A positive result was recorded as growth of ≧10 colonies. A negative result was recorded as growth of <10 colonies as this is equivalent to 99.9% inhibition. The lowest concentration of chemical that inhibited growth was recorded as the MIC. The results are recorded in Table IV below, where the numbers are quoted in mmol/L.
(§8) Given the positive performance of the ethoxylates of lauryl alcohol in reducing the MIC for a number of the micro-organisms tested, further MIC testing of Laureth-1 [C12E1] through to Laureth-8 [C12E8] was conducted on each of the following: • 10 strains of vancomycin-resistant enterococci (VRE)—listed in Table V below; and • 20 strains of methicillin-resistant Staphylococcus aureus (MRSA)—listed in Table VI.
(§9) The alkanol, alkanol derivatives, agar plates, and inocula were all prepared in the same way as described above.
(§10) The plates were examined in the same manner as described above and the results are recorded in Table VII below, where the numbers are quoted in mmol/L.

[8] = system: MRSA EMRSA 16 03732/95; experiment: MIC agar dilution, MRSA strain 45; settings: Staphylococcus aureus
Description: as §2, §3, §4, §5, §6, §7, §8, §9, §10

[9] = system: Enterococcus faecium (VRE) 12185 Clin waste; experiment: MIC agar dilution, VRE strain 24
Description: as §2, §3, §4, §5, §6, §7, §8, §9, §10

[10] = system: Enterococcus faecalis (VRE) MB 726; experiment: MIC agar dilution, VRE strain 28
Description: as §2, §3, §4, §5, §6, §7, §8, §9, §10

[11] = system: Enterococcus faecium (VRE) NCTC 12952; experiment: MIC agar dilution, VRE strain 30
Description: as §2, §3, §4, §5, §6, §7, §8, §9, §10

[12] = system: MRSA EMRSA 16 18200/95; experiment: MIC agar dilution, MRSA strain 48; settings: Staphylococcus aureus
Description: as §2, §3, §4, §5, §6, §7, §8, §9, §10

[13] = system: Enterococcus casseliflavus (VRE) Clin waste; experiment: MIC agar dilution, VRE strain 23
Description: as §2, §3, §4, §5, §6, §7, §8, §9, §10

Row | MIC ([1]; 22 hrs, read-out: MIC) [µM] | MIC ([1]; 48 hrs, read-out: MIC) [µM] | MIC ([2]; 22 hrs, read-out: MIC) [µM] | MIC ([2]; 48 hrs, read-out: MIC) [µM] | MIC ([3]; 22 hrs, read-out: MIC) [µM] | MIC ([3]; 48 hrs, read-out: MIC) [µM] | MIC ([4]; 22 hrs, read-out: MIC) [µM] | MIC ([4]; 48 hrs, read-out: MIC) [µM] | MIC ([5]; 22 hrs, read-out: MIC) [µM] | MIC ([5]; 48 hrs, read-out: MIC) [µM] | MIC ([6]; 22 h, 22 hrs, read-out: MIC) [µM] | MIC ([6]; 48 h, 48 hrs, read-out: MIC) [µM] | SMILES | MIC ([7]; 22 hrs) [µM] | MIC ([7]; 48 hrs) [µM] | MIC ([8]; 22 hrs) [µM] | MIC ([8]; 48 hrs) [µM] | MIC ([9]; 22 hrs) [µM] | MIC ([9]; 48 hrs) [µM] | MIC ([10]; 22 hrs) [µM] | MIC ([10]; 48 hrs) [µM] | further results
1 | > 880 | > 880 | > 880 | > 880 | 110 (≈ 26.7 µg/mL) | 110 (≈ 26.7 µg/mL) | > 880 | > 880 | > 880 | > 880 | 220 (≈ 53.3 µg/mL) | 440 (≈ 107 µg/mL) | CCCCCCCCCCCCCCCCO [C0, 1-Hexadecanol, reference compound] | – | – | – | – | – | – | – | – | –
2 | – | – | – | – | – | – | – | – | – | – | – | – | CCCCCCCCCCCCCOCCOCCOCCOCCOCCOCCO [C13E6, polyoxyethylene (6) tridecyl alcohol] | – | – | – | – | – | – | – | – | MIC ([1]; 22 hrs): 110 µM (≈ 51.1 µg/mL); MIC ([1]; 48 hrs): 110 µM (≈ 51.1 µg/mL); MIC ([2]; 22 hrs): 110 µM (≈ 51.1 µg/mL); MIC ([2]; 48 hrs): 110 µM (≈ 51.1 µg/mL); MIC ([3]; 22 hrs): >880 µM; MIC ([3]; 48 hrs): >880 µM; MIC ([4]; 22 hrs): >880 µM; MIC ([4]; 48 hrs): >880 µM; MIC ([5]; 22 hrs): >880 µM; MIC ([5]; 48 hrs): >880 µM; MIC ([6]; 22 hrs): 55 µM (≈ 25.6 µg/mL); MIC ([6]; 48 hrs): 55 µM (≈ 25.6 µg/mL)
3 | 110 (≈ 30.2 µg/mL) | 220 (≈ 60.4 µg/mL) | 220 (≈ 60.4 µg/mL) | 220 (≈ 60.4 µg/mL) | > 880 | > 880 | 220 (≈ 60.4 µg/mL) | 220 (≈ 60.4 µg/mL) | 220 (≈ 60.4 µg/mL) | 220 (≈ 60.4 µg/mL) | 110 (≈ 30.2 µg/mL) | 110 (≈ 30.2 µg/mL) | CCCCCCCCCCCCOCCOCCO [L2, Diethylene Glycol Monododecyl Ether] | 110 (≈ 30.2 µg/mL) | 110 (≈ 30.2 µg/mL) | 110 (≈ 30.2 µg/mL) | 110 (≈ 30.2 µg/mL) | > 880 | > 880 | 220 (≈ 60.4 µg/mL) | 220 (≈ 60.4 µg/mL) | MIC ([11]; 22 hrs): 440 µM (≈ 121 µg/mL); MIC ([11]; 48 hrs): 440 µM (≈ 121 µg/mL); MIC ([12]; 22 hrs): 110 µM (≈ 30.2 µg/mL); MIC ([12]; 48 hrs): 110 µM (≈ 30.2 µg/mL); MIC ([13]; 22 hrs): 220 µM (≈ 60.4 µg/mL); MIC ([13]; 48 hrs): 220 µM (≈ 60.4 µg/mL)

Row | SMILES | MIC ([1]; 22 hrs, read-out: MIC) [µM] | MIC ([1]; 48 hrs, read-out: MIC) [µM] | MIC ([2]; 22 hrs, read-out: MIC) [µM] | MIC ([2]; 48 hrs, read-out: MIC) [µM] | MIC ([3]; 22 hrs, read-out: MIC) [µM] | MIC ([3]; 48 hrs, read-out: MIC) [µM] | MIC ([4]; 22 hrs, read-out: MIC) [µM] | MIC ([4]; 48 hrs, read-out: MIC) [µM] | MIC ([5]; 22 hrs, read-out: MIC) [µM] | MIC ([5]; 48 hrs, read-out: MIC) [µM] | MIC ([6]; 22 h, 22 hrs, read-out: MIC) [µM] | MIC ([6]; 48 h, 48 hrs, read-out: MIC) [µM] | MIC ([7]; 22 hrs) [µM] | MIC ([7]; 48 hrs) [µM] | MIC ([8]; 22 hrs) [µM] | MIC ([8]; 48 hrs) [µM] | MIC ([9]; 22 hrs) [µM] | MIC ([9]; 48 hrs) [µM] | MIC ([10]; 22 hrs) [µM] | MIC ([10]; 48 hrs) [µM] | further results
4 | CCCCCCCCCCCCOCCO [L1, Ethylene Glycol Monododecyl Ether] | 440 (≈ 101 µg/mL) | 440 (≈ 101 µg/mL) | 440 (≈ 101 µg/mL) | 440 (≈ 101 µg/mL) | > 880 | > 880 | 440 (≈ 101 µg/mL) | 880 (≈ 203 µg/mL) | 440 (≈ 101 µg/mL) | 440 (≈ 101 µg/mL) | 220 (≈ 50.7 µg/mL) | 220 (≈ 50.7 µg/mL) | 220 (≈ 50.7 µg/mL) | 220 (≈ 50.7 µg/mL) | 220 (≈ 50.7 µg/mL) | 220 (≈ 50.7 µg/mL) | 880 (≈ 203 µg/mL) | 880 (≈ 203 µg/mL) | 440 (≈ 101 µg/mL) | 440 (≈ 101 µg/mL) | MIC ([11]; 22 hrs): 220 µM (≈ 50.7 µg/mL); MIC ([11]; 48 hrs): 220 µM (≈ 50.7 µg/mL); MIC ([12]; 22 hrs): 220 µM (≈ 50.7 µg/mL); MIC ([12]; 48 hrs): 220 µM (≈ 50.7 µg/mL); MIC ([13]; 22 hrs): 220 µM (≈ 50.7 µg/mL); MIC ([13]; 48 hrs): 220 µM (≈ 50.7 µg/mL)
